The record followed here is patent publication US11021481B2, “Substituted isoindolin-1-ones and 2,3-dihydro-1h-pyrrolo[3,4-c]pyridin-1-ones as HPK1 antagonists” (Nimbus Saturn, Inc., priority 2019, dated 2021).

Structures can show the parent of a compound that is named as a salt. Bounds are passed on as bounds.

The IC50 is the concentration that gives 50% inhibition.

Sequence of HPK1 (Q92918 whole entry): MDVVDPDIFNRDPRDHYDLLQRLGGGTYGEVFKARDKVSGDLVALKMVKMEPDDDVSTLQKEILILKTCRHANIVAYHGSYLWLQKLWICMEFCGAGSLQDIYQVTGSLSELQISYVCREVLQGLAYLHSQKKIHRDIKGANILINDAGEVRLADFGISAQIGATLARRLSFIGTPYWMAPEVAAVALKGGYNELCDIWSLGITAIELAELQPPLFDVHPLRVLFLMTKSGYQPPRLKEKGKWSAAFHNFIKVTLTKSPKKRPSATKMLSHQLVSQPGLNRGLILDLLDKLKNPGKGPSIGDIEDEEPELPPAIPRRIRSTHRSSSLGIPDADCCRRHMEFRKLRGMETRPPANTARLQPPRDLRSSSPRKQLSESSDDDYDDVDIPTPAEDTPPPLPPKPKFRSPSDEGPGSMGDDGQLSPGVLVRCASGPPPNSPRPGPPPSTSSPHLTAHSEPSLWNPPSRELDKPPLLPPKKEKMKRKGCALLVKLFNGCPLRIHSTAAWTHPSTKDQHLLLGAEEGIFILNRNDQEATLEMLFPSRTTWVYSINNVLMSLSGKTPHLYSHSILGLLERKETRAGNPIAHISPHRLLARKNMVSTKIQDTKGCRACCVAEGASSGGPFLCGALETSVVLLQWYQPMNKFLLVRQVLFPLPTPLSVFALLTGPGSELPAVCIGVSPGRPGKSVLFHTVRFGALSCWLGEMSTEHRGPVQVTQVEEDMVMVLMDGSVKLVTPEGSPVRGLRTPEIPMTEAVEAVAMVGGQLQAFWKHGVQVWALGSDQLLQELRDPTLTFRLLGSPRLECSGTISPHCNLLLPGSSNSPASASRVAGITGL

The experiment concerns the target HPK1 (Homo sapiens (Human), UniProt Q92918). Description: HPK1 biochemical enzyme assay (microfluidic mobility shift assay). Conditions: 1.5 nM HPK1, ATP 1 mM final, 30 min preincubation, 60 min at RT, Caliper EZ Reader; read-out: HPK1 1000UMATP caliper IC50. Put shortly:
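Ten-point compound titrations (top 3 μM final) preincubated 30 min with HPK1 and substrate, then reaction started with 1 mM ATP and 1 μM substrate, 5 mM MgCl2. After 60 min at RT, reaction terminated and product measured by microfluidic mobility shift.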
Regarding `CN[C@H]1CCCN(c2ccc(Nc3ccc(-c4ccnc5c4ccn5C)c4c3C(=O)NC4)nc2)C1` [I-97, 7-[[5-[(3S)-3-(methylamino)-1-piperidyl]-2-pyridyl]amino]-4-(1-methylpyrrolo [2,3-b]pyridin-4-yl)isoindolin-1-one], the IC50 is less than 0.1 µM.

Regarding `CN(C)Cc1nc(Nc2cnc(-c3ccnc4c3ccn4C)c3c2C(=O)NC3)ccc1N1CCO[C@H](C(C)(C)O)C1` [I-770, (S)-7-((6-((dimethylamino)-methyl)-5-(2-(2-hydroxypropan-2-yl)morpholino)pyridin-2-yl)amino)-4-(1-methyl-1H-pyrrolo[2,3-b]pyridin-4-yl)-2,3-dihydro-1H-pyrrolo[3,4-c]pyridin-1-one], the IC50 was less than 0.1 µM.

`Cc1ccn2c(-c3ccc(Nc4ccc(C5(O)CCOCC5)cn4)c4c3CNC4=O)cnc2c1F` [I-587, 4-(8-fluoro-7-methylimidazo [1,2-a]pyridin-3-yl)-7-((5-(4-hydroxytetra-hydro-2H-pyran-4-yl)pyridin-2-yl)amino)isoin-dolin-1-one]: the IC50 was less than 0.1 µM.

Take `O=C1NCc2c(-c3cnc4n3CCCC4)ccc(Nc3ccc(N4CCNCC4)cn3)c21` [I-80, 7-[(5-piperazin-1-yl-2-pyridyl)amino]-4-(5,6,7,8-tetrahydro-imidazo[1,2-a]pyridin-3-yl)isoindolin-1-one]: the IC50 was less than 0.1 µM.

For the molecule `O=C1NCc2c(-c3ccnc4[nH]ccc34)ncc(Nc3ccc(N4CCC(O)CC4)cn3)c21` [I-193, 7-[[5-(4-hydroxy-1-piperidyl)-2-pyridyl]-amino]-4-(1H-pyrrolo[2,3-b]pyridin-4-yl)-2,3-dihydropyrrolo [3,4-c]pyridin-1-one], the IC50 is less than 0.1 µM.

As to `COCCn1ccc2c(-c3ccc(Nc4ccc(N5CCN(C)CC5)cn4)c4c3CNC4=O)ccnc21` [I-47, 4-[1-(2-methoxyethyl)pyrrolo[2,3-b]pyridin-4-yl]-7-[[5-(4-methylpiperazin-1-yl)-2-pyridyl]amino] isoindolin-1-one], the IC50 was less than 0.1 µM.

Consider `Cc1cnn2c(-c3ccc(Nc4ccc([C@@H]5CCOC5)c(CN(C)C)n4)c4c3CNC4=O)cnc2c1` [I-538, (S)-7-((6-((dimethylamino)-methyl)-5-(tetrahydrofuran-3-yl)pyridin-2-yl)amino)-4-(7-methylimidazo [1,2-b]pyridazin-3-yl)isoindolin-1-one], for which the IC50 was less than 0.1 µM.

Take `O=C1NCc2c(-c3cnc4cc(C(F)F)ccn34)ccc(Nc3ccc(C4(O)CCOCC4)cn3)c21` [I-608, 4-(7-(difluoromethyl)-imidazo[1,2-a]pyridin-3-yl)-7-((5-(4-hydroxytetra-hydro-2H-pyran-4-yl)pyridin-2-yl)amino)isoin-dolin-1-one]: the IC50 was less than 0.1 µM.

For the molecule `Cn1ccc2c(-c3ccc(Nc4ccc(N5CCC[C@H](N)C5)cn4)c4c3CNC4=O)ccnc21` [I-94, 7-[[5-[(3S)-3-amino-1-piperipyl]-2-pyridyl]amino]-4-(l-methylpyrrolo [2,3-b]pyridin-4-yl)isoindolin-1-one], the IC50 is less than 0.1 µM.

In the case of `CC1(N2CCOCC2)CCN(c2ccc(Nc3ccc(-c4cnc5cc(F)ccn45)c4c3C(=O)NC4)nc2)CC1` [I-429, 4-(7-fluoroimidazo [1,2-a]pyridin-3-yl)-7-((5-(4-methyl-4-morpholinopip-eridin-1-yl)pyridin-2-yl)amino)isoin-dolin-1-one], the IC50 is less than 0.1 µM.

For `CN1CCN(c2ccc(Nc3cnc(-c4c[nH]c5cc(O)ccc45)c4c3C(=O)NC4)nc2)CC1` [I-250], the IC50 fell in the range of 0.1 to 1 µM.

For the molecule `O=C1NCc2c(-c3cnc4cnccn34)ccc(Nc3ccc(N4CCC(O)CC4)cn3)c21` [I-133, 7-[[5-(4-hydroxy-1-piperidyl)-2-pyridyl]amino]-4-imidazo[1,2-a]pyrazin-3-yl-isoindolin-1-one], the IC50 is less than 0.1 µM.

Take `Cc1c(F)ccn2c(-c3ccc(Nc4ccc(N5CCC(O)CC5)cn4)c4c3CNC4=O)cnc12` [I-209, 4-(7-fluoro-8-methyl-imidazo[1,2-a]pyridin-3-yl)-7-[[5-(4-hydroxy-1-piperidyl)-2-pyridyl]amino] isoindolin-1-one]: the IC50 was less than 0.1 µM.

On to `Cc1cc(Nc2cnc(-c3ccnc4c3ccn4C)c3c2C(=O)NC3)nc(N2CC[C@H]3CN(C)C[C@H]32)c1` [I-643, 4-(1-methyl-1H-pyrrolo[2,3-b]pyridin-4-yl)-7-((4-methyl-6-((3aS,6aS)-5-methylhcxahydropyrrolo[3,4-b]pyrrol-1(2H)-yl)pyridin-2-yl)amino)-2,3-dihydro-1H-pyrrolo[3,4-c]pyridin-1-one], for which the IC50 was less than 0.1 µM.

As for `Cn1ccc2c(-c3ncc(Nc4cccc(N5C[C@@H](CN6CCC6)CCC5=O)n4)c4c3CNC4=O)ccnc21` [I-688, (R)-7-((6-(5-(azetidin-1-ylmethyl)-2-oxopiperidin-1-yl)pyridin-2-yl)amino)-4-(1-methyl-1H-pyrrolo[2,3-b]pyridin-4-yl)-2,3-dihydro-1H-pyrrolo[3,4-c]pyridin-1-one], the IC50 is more than 1 µM.

As to `N#Cc1ccn2c(-c3ccc(Nc4ccc(N5CCOCC5)cn4)c4c3CNC4=O)cnc2c1` [I-183, 3-[7-[(5-morpholino-2-pyridyl)amino]-1-oxo-isoindolin-4-yl]imidazo[1,2-a]pyridine-7-carbonitrile], the IC50 was less than 0.1 µM.

Take `Cn1cc2ncc(-c3ccc(Nc4ccc(N5CCC(O)CC5)cn4)c4c3CNC4=O)c-2cn1` [I-448, 7-((5-(4-hydroxy-piperidin-1-yl)pyridin-2-yl)amino)-4-(6-methyl-6H-pyrrolo[2,3-d]pyridazin-3-yl)isoindolin-1-one]: the IC50 fell in the range of 0.1 to 1 µM.

With `CC(C)NCc1nc(Nc2ccc(-c3cnc4cc(F)ccn34)c3c2C(=O)NC3)ccc1C1CCOCC1` [I-847, 4-(7-fluoroimidazo [1,2-a]pyridin-3-yl)-7-[[6-[(isopropylamino)-methyl]-5-tetrahydropyran-4-yl-2-pyridyl]amino] isoindolin-1-one Formic acid salt], the IC50 was less than 0.1 µM.

`Cn1ccn2c(-c3ccc(Nc4ccc(N5CCC(O)CC5)cn4)c4c3CNC4=O)cnc2c1=O` [I-168, 3-[7-[[5-(4-hydroxy-1-piperidyl)-2-pyridyl]amino]-1-oxo-isoindolin-4-yl]-7-methyl-imidazo[1,2-a]pyrazin-8-one]: the IC50 was less than 0.1 µM.

Consider `CN(C)Cc1nc(Nc2ccc(-c3cnc4cnccn34)c3c2C(=O)NC3)ccc1[C@H]1CCOC1` [I-713, (R)-7-((6-((dimethylamino)-methyl)-5-(tetrahydrofuran-3-yl)pyridin-2-yl)amino)-4-(imidazo[1,2-a]pyrazin-3-yl)isoindolin-1-one], for which the IC50 was less than 0.1 µM.

With `CN1CCN(c2ccc(Nc3cnc(-c4c[nH]c5ccncc45)c4c3C(=O)NC4)nc2)CC1` [I-13, 7-[[5-(4-methylpiperazin-1-yl)-2-pyridyl]amino]-4-(1H-pyrrolo[3,2-c]pyridin-3-yl)-2,3-dihydropyrrolo [3,4-c]pyridin-1-one], the IC50 is 0.1 to 1 µM.

Turning to `CN1CCN(c2ccc(Nc3ccc(-c4ccn5ncnc5c4)c4c3C(=O)NC4)nc2)CC1` [I-36, 7-[[5-(4-methylpiperazin-1-yl)-2-pyridyl]amino]-4-([1,2,4]triazolo [1,5-a]pyridin-7-yl)isoindolin-1-one], the IC50 lay in the range of 0.1 to 1 µM.

On to `CC(C)NCc1nc(Nc2cnc(-c3ccnc4c3ccn4C)c3c2C(=O)NC3)ccc1C1CCOCC1` [I-844, 7-[[6-[(isopropylamino)-methyl]-5-tetrahydropy-ran-4-yl-2-pyridyl]amino]-4-(1-methylpyrrolo [2,3-b]pyridin-4-yl)-2,3-dihydropyrrolo [3,4-c]pyridin-1-one Formic acid salt], for which the IC50 is less than 0.1 µM.

Take `O=C1NCc2c(-c3cnc4c(F)cccn34)ccc(Nc3ccc(N4CCC(O)CC4)cn3)c21` [I-130, 4-(8-fluoroimidazo [1,2-a]pyridin-3-yl)-7-[[5-(4-hydroxy-1-piperidyl)-2-pyridyl]amino] isoindolin-1-one]: the IC50 was less than 0.1 µM.

Take `CN(C)Cc1nc(Nc2ccc(-c3cnc4cc(F)ccn34)c3c2C(=O)NC3)ccc1N1CCC[C@@H](C(C)(C)O)C1` [I-745, (R)-7-((6-((dimethylamino)-methyl)-5-(3-(2-hydroxypropan-2-yl)piperidin-1-yl)pyridin-2-yl)amino)-4-(7-fluoroimidazo [1,2-a]pyridin-3-yl)isoindolin-1-one]: the IC50 is less than 0.1 µM.

As for `Cn1ccc2c(-c3ncc(Nc4cncc(N5CC[C@H]6CNC[C@H]65)n4)c4c3CNC4=O)ccnc21` (single isomer, unassigned) [I-660], the IC50 was less than 0.1 µM.

Regarding `O=C1NCc2c(-c3cnc4c(F)cccn34)ncc(Nc3ccc(C4(O)CCOCC4)cn3)c21` [I-683, 4-(8-fluoroimidazo [1,2-a]pyridin-3-yl)-7-((5-(4-hydroxytetra-hydro-2H-pyran-4-yl)pyridin-2-yl)amino)-2,3-dihydro-1H-pyrrolo[3,4-c)pyridin-1-one], the IC50 was less than 0.1 µM.

Turning to `Cn1ccc2c(-c3ncc(Nc4ccc([C@@H]5CCOC5)c(CN5CC[C@H](O)C5)n4)c4c3CNC4=O)ccnc21` [I-811, 7-((6-(((S)-3-hydroxypyrroli-din-1-yl)methyl)-5-((S)-THF-3-yl)pyridin-2-yl)amino)-4-(1-methyl-1H-pyrrolo[2,3-b]pyridin-4-yl)-2,3-dihydro-1H-pyrrolo[3,4-c]pyridin-1-one], the IC50 is less than 0.1 µM.

Take `CC(C)(C)NCc1nc(Nc2ccc(-c3cnc4cc(F)ccn34)c3c2C(=O)NC3)ccc1C1CCOC1` (stereo not shown) [I-848, 7-[[6-[(tert-butylamino)methyl]-5-tetrahydrofuran-3-yl-2-pyridyl]amino]-4-(7-fluoroimidazo [1,2-a]pyridin-3-yl)isoindolin-1-one]: the IC50 was less than 0.1 µM.

Consider `O=C1NCc2c(-c3cnc4cc(F)ccn34)ccc(Nc3ccc([C@@H]4CCOC4)c(CN4CCCC4)n3)c21` [I-516, (S)-4-(7-fluoroimidazo [1,2-a]pyridin-3-yl)-7-((6-(pyrrolidin-1-ylmethyl)-5-(tetrahydrofuran-3-yl)pyridin-2-yl)amino)isoin-dolin-1-one], for which the IC50 is less than 0.1 µM.

With `C[C@H](c1ccc(Nc2ccc(-c3cnc4cc(F)ccn34)c3c2C(=O)NC3)nc1)N1CCOCC1` (single isomer, unassigned) [I-639], the IC50 is less than 0.1 µM.
